The numbers were not newly measured in patent US9440985B2, “Tricyclic derivatives of N,N′-substituted 3,7-diazabicyclo [3.3.1]nonanes and drugs based thereon” (priority 2011, dated 2016), which cites them from elsewhere.

For series [1], the system named is AMPA receptors. The note with it: high concentrations.
The test system of series [2] is AMPA receptors.
Series [3] concerns AMPA receptors. The following applies: adult rats; 0.3-3 mg/kg.

In the case of `COc1ccc(C(=O)N2CCCC2=O)cc1` [aniracetam], in series [1], the “concentration at which the clinical effect is manifested” value was 0.1 mM. Further, the NMDA-mediated signals result in series [2] is reported as “no effect”. Further, the synaptic signal result in series [2] (several hippocampus sites) is “enhances the synaptic signal”.
Regarding `O=C(c1ccc2c(c1)OCCO2)N1CCCCC1` [CX546], the social memory entry in series [3] was “improves social memory”.
